Reference: patent US20260042731A1, “(2,4-DICHLOROPHENOXY)ACETIC ACID ANALOGS” (CORTEVA AGRISCIENCE LLC, priority 2022, published 2026)
Like-named read-outs stand apart in the source and are kept apart here.

What was measured:
[1] = system: Amaranthus rudis (AMATA), tall water hemp; test: Postemergence herbicide evaluation, growth of Amaranthus rudis (AMATA); assay type: in vivo; conditions: for pest or weed control at 280 g/ha / pest or weed control at 560 g/ha: Amaranthus tuberculatus, post-emergence
[2] = system: Ambrosia artemisiifolia (AMBEL), common ragweed; test: Postemergence herbicide evaluation, growth of Ambrosia artemisiifolia (AMBEL); assay type: in vivo; conditions: Ambrosia artemisiifolia, post-emergence; for pest or weed control at 280 g/ha: 280 g ae/ha; for pest or weed control at 560 g/ha: 560 g ae/ha
[3] = system: Abutilon theophrasti (ABUTH), velvetleaf; test: Postemergence herbicide evaluation, growth of Abutilon theophrasti (ABUTH); assay type: in vivo; conditions: for pest or weed control at 280 g/ha / pest or weed control at 560 g/ha: Abutilon theophrasti, post-emergence; for pest or weed control at 280 g/ha / AVE. ABUTH, percent reduction in plant size relative to the untreated control: 280 g ae/ha; for pest or weed control at 560 g/ha: 560 g ae/ha
[4] = system: Chenopodium album (CHEAL), common lambsquarters; test: Postemergence herbicide evaluation, growth of Chenopodium album (CHEAL); assay type: in vivo; conditions: Chenopodium album, post-emergence; for pest or weed control at 280 g/ha: 280 g ae/ha; for pest or weed control at 560 g/ha: 560 g ae/ha
[5] = system: glyphosate resistant Conyza canadensis (L.) (ERICA), horseweed; test: Postemergence herbicide evaluation, growth of Conyza canadensis (ERICA); assay type: in vivo; conditions: Erigeron canadensis, post-emergence; for pest or weed control at 280 g/ha: 280 g ae/ha; for pest or weed control at 560 g/ha: 560 g ae/ha
[6] = Volatility of compounds measured by thermogravimetric analysis (TGA); assay type: physicochemical
[7] = system: weeds ABUTH, AMATA, AMBEL, CHEAL, ERICA; test: Postemergence herbicide evaluation, overall average % weed control (ABUTH, AMATA, AMBEL, CHEAL, ERICA); assay type: in vivo; conditions: post-emergence, read-out: Overall Ave % Weed Control; for pest or weed control at 280 g/ha: 280 g ae/ha; for pest or weed control at 560 g/ha: 560 g ae/ha
[8] = system: weeds (ABUTH, AMATA, AMBEL, CHEAL, ERICA); test: Postemergence herbicide evaluation, overall average % weed control across ABUTH, AMATA, AMBEL, CHEAL, ERICA; assay type: in vivo; conditions: post-emergence, average over the five weeds, read-out: Overall Ave % Weed Control; for pest or weed control at 280 g/ha: 280 g ae/ha; for pest or weed control at 560 g/ha: 560 g ae/ha
[9] = 168 h, 280 g ae/ha, 7 DAA, read-out: Ave. AMATA, percent reduction in plant size relative to the untreated control
[10] = 168 h, 7 DAA, read-out: AVE. AMBEL, percent reduction in plant size relative to the untreated control
[11] = 336 h, 14 DAA, percent reduction in plant size relative to untreated control, read-out: AVE. AMBEL
[12] = 504 h, 21 DAA, percent reduction in plant size relative to untreated control, read-out: AVE. AMBEL
[13] = 168 h, 7 DAA, read-out: AVE. ABUTH, percent reduction in plant size relative to the untreated control
[14] = 336 h, 14 DAA, percent reduction in plant size relative to untreated control, read-out: AVE. ABUTH
[15] = 504 h, 21 DAA, percent reduction in plant size relative to untreated control, read-out: AVE. ABUTH
[16] = 168 h, 7 DAA, read-out: Ave. CHEAL, percent reduction in plant size relative to the untreated control
[17] = 336 h, 14 DAA, percent reduction in plant size relative to untreated control, read-out: Ave. CHEAL
[18] = 504 h, 21 DAA, percent reduction in plant size relative to untreated control, read-out: Ave. CHEAL
[19] = 168 h, 7 DAA, read-out: Ave. ERICA, percent reduction in plant size relative to the untreated control
[20] = 336 h, 14 DAA, percent reduction in plant size relative to untreated control, read-out: Ave. ERICA
[21] = 504 h, 21 DAA, percent reduction in plant size relative to untreated control, read-out: Ave. ERICA
[22] = 336 h, 14 DAA, read-out: AVE. AMBEL, percent reduction in plant size relative to the untreated control
[23] = 504 h, 21 DAA, read-out: AVE. AMBEL, percent reduction in plant size relative to the untreated control
[24] = 504 h, 21 DAA, read-out: AVE. ABUTH, percent reduction in plant size relative to the untreated control
[25] = 336 h, 14 DAA, read-out: Ave. CHEAL, percent reduction in plant size relative to the untreated control
[26] = 504 h, 21 DAA, read-out: Ave. CHEAL, percent reduction in plant size relative to the untreated control
[27] = 336 h, 14 DAA, read-out: Ave. ERICA, percent reduction in plant size relative to the untreated control
[28] = 504 h, 21 DAA, read-out: Ave. ERICA, percent reduction in plant size relative to the untreated control

N/C(=N\OC(=O)COc1ccc(Cl)cc1Cl)c1ccco1 [Compound A5]
pest or weed control at 280 g/ha [1, 9]: 70% | pest or weed control at 560 g/ha ([1]; 168 h, 560 g ae/ha, 7 DAA, read-out: Ave. AMATA, percent reduction in plant size relative to the untreated control): 65% | pest or weed control at 280 g/ha ([1]; 336 h, 280 g ae/ha, 14 DAA, percent reduction in plant size relative to untreated control, read-out: Ave. AMATA): 73% | pest or weed control at 560 g/ha ([1]; 336 h, 560 g ae/ha, 14 DAA, percent reduction in plant size relative to untreated control, read-out: Ave. AMATA): 68% | pest or weed control at 280 g/ha ([1]; 504 h, 280 g ae/ha, 21 DAA, percent reduction in plant size relative to untreated control, read-out: Ave. AMATA): 73% | pest or weed control at 560 g/ha ([1]; 504 h, 560 g ae/ha, 21 DAA, percent reduction in plant size relative to untreated control, read-out: Ave. AMATA): 70% | pest or weed control at 280 g/ha [2, 10]: 60% | pest or weed control at 560 g/ha [2, 10]: 60% | pest or weed control at 280 g/ha [2, 11]: 78% | pest or weed control at 560 g/ha [2, 11]: 85% | pest or weed control at 280 g/ha [2, 12]: 78% | pest or weed control at 560 g/ha [2, 12]: 85% | pest or weed control at 280 g/ha [3, 13]: 38% | pest or weed control at 560 g/ha [3, 13]: 43% | pest or weed control at 280 g/ha [3, 14]: 40% | pest or weed control at 560 g/ha [3, 14]: 53% | pest or weed control at 280 g/ha [3, 15]: 30% | pest or weed control at 560 g/ha [3, 15]: 50% | pest or weed control at 280 g/ha [4, 16]: 60% | pest or weed control at 560 g/ha [4, 16]: 63% | pest or weed control at 280 g/ha [4, 17]: 68% | pest or weed control at 560 g/ha [4, 17]: 63% | pest or weed control at 280 g/ha [4, 18]: 68% | pest or weed control at 560 g/ha [4, 18]: 65% | pest or weed control at 280 g/ha [5, 19]: 70% | pest or weed control at 560 g/ha [5, 19]: 73% | pest or weed control at 280 g/ha [5, 20]: 83% | pest or weed control at 560 g/ha [5, 20]: 85% | pest or weed control at 280 g/ha [5, 21]: 88% | pest or weed control at 560 g/ha [5, 21]: 88% | TGA Data (rate of weight loss, volatility) [6]: 1.2 µg/min | pest or weed control at 280 g/ha ([7]; 168 h, 7 DAA): 60% | pest or weed control at 560 g/ha ([7]; 168 h, 7 DAA): 61% | pest or weed control at 280 g/ha ([8]; 336 h, 14 DAA): 68% | pest or weed control at 560 g/ha ([8]; 336 h, 14 DAA): 71% | pest or weed control at 280 g/ha ([8]; 504 h, 21 DAA): 67% | pest or weed control at 560 g/ha ([8]; 504 h, 21 DAA): 72%

O=C(COc1ccc(Cl)cc1Cl)Oc1cncnc1 [Compound E14, Pyrimidin-5-yl 2-(2,4-dichlorophenoxy)acetate]
Ave. AMATA, percent reduction in plant size relative to the untreated control ([1]; 280 g ae/ha, 21 DAA): 92.5% | Ave. AMATA, percent reduction in plant size relative to the untreated control ([1]; 560 g ae/ha, 7 DAA): 98.5% | pest or weed control at 280 g/ha [1, 9]: 89% | pest or weed control at 280 g/ha ([1]; 336 h, 280 g ae/ha, 14 DAA, read-out: Ave. AMATA, percent reduction in plant size relative to the untreated control): 90% | pest or weed control at 560 g/ha ([1]; 336 h, 560 g ae/ha, 14 DAA, read-out: Ave. AMATA, percent reduction in plant size relative to the untreated control): 97% | pest or weed control at 560 g/ha ([1]; 504 h, 560 g ae/ha, 21 DAA, read-out: Ave. AMATA, percent reduction in plant size relative to the untreated control): 100% | pest or weed control at 280 g/ha [2, 10]: 82.5% | pest or weed control at 560 g/ha [2, 10]: 77.5% | pest or weed control at 280 g/ha [2, 22]: 92.5% | pest or weed control at 560 g/ha [2, 22]: 98.5% | pest or weed control at 280 g/ha [2, 23]: 100% | pest or weed control at 560 g/ha [2, 23]: 99.5% | AVE. ABUTH, percent reduction in plant size relative to the untreated control ([3]; 7 DAA): 65% | AVE. ABUTH, percent reduction in plant size relative to the untreated control ([3]; 14 DAA): 65% | pest or weed control at 560 g/ha [3, 13]: 67.5% | pest or weed control at 560 g/ha ([3]; 336 h, 14 DAA, read-out: AVE. ABUTH, percent reduction in plant size relative to the untreated control): 77.5% | pest or weed control at 280 g/ha [3, 24]: 97.5% | pest or weed control at 560 g/ha [3, 24]: 97.5% | pest or weed control at 280 g/ha [4, 16]: 80% | pest or weed control at 560 g/ha [4, 16]: 77.5% | pest or weed control at 280 g/ha [4, 25]: 90% | pest or weed control at 560 g/ha [4, 25]: 92.5% | pest or weed control at 280 g/ha [4, 26]: 95% | pest or weed control at 560 g/ha [4, 26]: 100% | pest or weed control at 280 g/ha [5, 19]: 75% | pest or weed control at 560 g/ha [5, 19]: 85% | pest or weed control at 280 g/ha [5, 27]: 92.5% | pest or weed control at 560 g/ha [5, 27]: 98% | pest or weed control at 280 g/ha [5, 28]: 96% | pest or weed control at 560 g/ha [5, 28]: 99% | TGA Data (rate of weight loss, volatility) [6]: 0.0575 µg/min | pest or weed control at 280 g/ha ([7]; 168 h, 7 DAA): 78.3% | pest or weed control at 560 g/ha ([7]; 168 h, 7 DAA): 81.2% | pest or weed control at 280 g/ha ([7]; 336 h, 14 DAA): 86% | pest or weed control at 560 g/ha ([7]; 336 h, 14 DAA): 92.7% | pest or weed control at 280 g/ha ([7]; 504 h, 21 DAA): 96.2% | pest or weed control at 560 g/ha ([7]; 504 h, 21 DAA): 99.2%
